According to US12285440B2, “APOE4 impairs myelination via altered cholesterol biosynthesis and transport in oligodendroglia” (Massachusetts Institute of Technology, priority 2021, dated 2025):

Columns and labels:
Assay type in all cases: cell-based, human
APOE3 iMGLs [1] = test: Lipid droplet induction in APOE3 iMGLs, BODIPY/IBA1 staining; conditions: 20 μM, 16 hours
APOE3 iMGLs [2] = test: qPCR of OA-treated iMGLs; conditions: 20 μM, 16 hours
APOE3 iMGLs [3] = test: Calcium imaging upon ATP uncaging in OA-treated APOE3 iMGLs; conditions: 20 μM, 16 hours, vs untreated APOE3 iMGLs
APOE4 iMGLs [4] = conditions: 1 μM, 16 hours, vs DMSO-treated control cells
APOE4 iMGLs [5] = test: Purinergic signaling in TrC-treated APOE4 iMGLs; conditions: 1 μM, 16 hours
APOE4 iMGLs [6] = test: Cholesterol in media of APOE4 iMGLs via ELISA; conditions: 16 hours treatment, drug washed off, media conditioned 24 hours; vs DMSO-treated controls
Description: Having induced lipid formation in APOE3 iMGLs, we next attempted to deplete APOE4 iMGLs of lipid droplets to test whether this would alleviate APOE4 phenotypes. We turned to the ACSL1 inhibitor Triacsin C (TrC). […] Since TrC has also been reported to inhibit cholesterol biosynthesis and increase microglial phagocytosis, we decided to test if the extracellular accumulation of cholesterol in APOE4 iMGLs could be reduced by TrC treatment. After 16 hours, DMSO-treated controls or TrC-treated APOE4 iMGLs were washed off the drug treatment and allowed to condition the media for an additional 24 hours. […] We reasoned that a decrease in extracellular cholesterol accumulation in APOE4 iMGLs cultures treated with TrC was likely to also relieve the suppression of neuronal activity under APOE4 iMGL conditioned media. NGN2-induced neurons from APOE3 or APOE4 iPS lines were seeded onto MEAs and allowed to mature for 3 weeks before being recorded 24 hours after exposure to conditioned media from APOE3 iMGLs, APOE4 iMGLs, or APOE4 iMGL treated with TrC. […]
[…] Measurements were made using an EnSpire plate reader (Perkin Elmer). APOE levels were similarly processed and quantified from iMGL conditioned media using Apolipoprotein E Human ELISA kit (Invitrogen; #EHAPOE).

NGN2-induced neurons = test: MEA recording of NGN2-induced neurons exposed to iMGL conditioned media; conditions: 24 hours after exposure to conditioned media from APOE4 iMGL pre-treated with TrC
Description: Having induced lipid formation in APOE3 iMGLs, we next attempted to deplete APOE4 iMGLs of lipid droplets to test whether this would alleviate APOE4 phenotypes. We turned to the ACSL1 inhibitor Triacsin C (TrC). […] Since TrC has also been reported to inhibit cholesterol biosynthesis and increase microglial phagocytosis, we decided to test if the extracellular accumulation of cholesterol in APOE4 iMGLs could be reduced by TrC treatment. After 16 hours, DMSO-treated controls or TrC-treated APOE4 iMGLs were washed off the drug treatment and allowed to condition the media for an additional 24 hours. […] NGN2-induced neurons from APOE3 or APOE4 iPS lines were seeded onto MEAs and allowed to mature for 3 weeks before being recorded 24 hours after exposure to conditioned media from APOE3 iMGLs, APOE4 iMGLs, or APOE4 iMGL treated with TrC. […]
Dissociated spheroids or NGN2-induced neurons were plated as a 10 μl droplet in Poly-D-Lysine (Sigma-Aldrich) coated wells of a CytoView MEA 48-well plate (Axion BioSystems; M768-tMEA-48B). […] Spontaneous neural activity was recorded for 30 minutes at a sampling rate of 12.5 kHz and an adaptive threshold set at 5.5 times the standard deviation of baseline noise was used for spike detection. Bursts were detected at each electrode using an inter-spike interval (ISI) threshold set to at least 5 spikes with a maximum ISI of 100 ms. […]

| SMILES | cell size of iMGLs (APOE3 iMGLs [1]) | intracellular BODIPY-positive lipid droplets (APOE3 iMGLs [1]; IBA1-positive cells) | CD74 expression by qPCR (APOE3 iMGLs [2]) | expression of ACSL1 (APOE3 iMGLs [2]) | calcium transients evoked by ATP uncaging (APOE3 iMGLs [3]) | BODIPY-positive lipid droplets (APOE4 iMGLs [4]) | purinergic signaling (APOE4 iMGLs [5]) | levels of accumulated cholesterol in the media (APOE4 iMGLs [6]) | neuronal bursts / neural activity on MEA (NGN2-induced neurons) |
| --- | --- | --- | --- | --- | --- | --- | --- | --- | --- |
| CCCCCCCC/C=C\CCCCCCCC(=O)O [OA, oleic acid] | decrease in the cell size of iMGLs | accumulated intracellular BODIPY-positive lipid droplets | upregulation of this gene | significantly induced the expression of ACSL1 | sufficient to blunt calcium transients evoked by ATP uncaging relative to untreated APOE3 iMGLs |  |  |  |  |
| CCC/C=C/C/C=C/C=C/C=N/NN=O [TrC, Triacsin C] |  |  |  |  |  | dramatically reduce BODIPY-positive lipid droplets relative to DMSO-treated control cells | purinergic signaling was restored after lipid droplet depletion | significant decrease in the levels of accumulated cholesterol in the media | increased neural activity to the level of neurons treated with APOE3 iMGL media |
